According to patent US10105357B2, “Indication of antibiotic drugs for preparation of cancer inhibition pharmaceutical composition” (LAUNX BIOMEDICAL CO., LTD., priority 2014, dated 2018):
Where two headings read alike, the source gives them in different places.

Columns and labels:
[1] = system: HI650 (Lung Adenocarcinoma); experiment: Cell viability analysis, lung cancer HI650; type: cell-based, human
[2] = system: A549 (Lung Adenocarcinoma); experiment: Cell viability analysis, lung cancer A549; type: cell-based, human; conditions: for viability at 10 µM: Homo sapiens, A549, 72 h
[3] = system: AGS (Gastric Adenocarcinoma); experiment: Cell viability analysis, gastric cancer AGS; type: cell-based, human; conditions: for viability at 10 µM: Homo sapiens, 72 h
[4] = system: MKN-45 (Gastric Adenocarcinoma); experiment: Cell viability analysis, gastric cancer MKN-45; type: cell-based, human; conditions: for viability at 10 µM: Homo sapiens, MKN-45, 72 h
[5] = system: HepG2 (Hepatocellular Carcinoma); experiment: Cell viability analysis, hepatic cancer HepG2; type: cell-based, human; conditions: for viability at 10 µM: Homo sapiens, HepG2, 72 h
[6] = system: LoVo (Colorectal Adenocarcinoma); experiment: Cell viability analysis, colon cancer LoVo; type: cell-based, human; conditions: for viability at 10 µM: Homo sapiens, LoVo, 72 h
[7] = system: A375 (Amelanotic Melanoma); experiment: Cell viability analysis, skin cancer A375; type: cell-based, human; conditions: for viability at 10 µM: Homo sapiens, A-375, 72 h
[8] = system: HeLa (Cervix Adenocarcinoma); experiment: Cell viability analysis, cervical cancer HeLa; type: cell-based, human; conditions: for viability at 10 µM: Homo sapiens, HeLa, 72 h
[9] = system: PC3 (p53−) (Prostate Adenocarcinoma); experiment: Cell viability analysis, prostate cancer PC3; type: cell-based, human; conditions: for viability at 10 µM: Homo sapiens, 72 h
[10] = system: TSGH-8301 (Urinary Bladder Carcinoma); experiment: Cell viability analysis, bladder cancer TSGH-8301; type: cell-based, human; conditions: for viability at 10 µM: Homo sapiens, 72 h
[11] = system: MCF7 (Mammary Gland, Adenocarcinoma); experiment: Cell viability analysis, breast cancer MCF7; type: cell-based, human; conditions: for viability at 10 µM: Homo sapiens, MCF7, 72 h
[12] = system: HL-60 (Acute Promyelocytic Leukemia); experiment: Cell viability analysis, leukemia HL-60; type: cell-based, human
[13] = system: HCT116 (p53+) (Colorectal Carcinoma)
cancer cell lines = experiment: Cell viability analysis (WST-1) on cancer cell lines; type: cell-based, human; conditions: drug 10 μM, 72 hours, WST-1; Table 3
[14] = system: Hep3B (hepatocellular carcinoma); experiment: Cell viability analysis, hepatic cancer Hep3B; type: cell-based, human; conditions: Homo sapiens, Hep3B, 72 h, read-out: The results of antibiotic drug inhibiting cancer cell lines (cell viability analysis), Hep3B
[15] = system: BCC (basal cell carcinoma); experiment: Cell viability analysis, skin cancer BCC; type: cell-based, human; conditions: Homo sapiens, 72 h, read-out: The results of antibiotic drug inhibiting cancer cell lines (cell viability analysis), BCC
[16] = system: C-33A (Cervical carcinoma); experiment: Cell viability analysis, cervical cancer C-33A; type: cell-based, human; conditions: Homo sapiens, C-33-A, 72 h, read-out: The results of antibiotic drug inhibiting cancer cell lines (cell viability analysis), C-33A
T24 = experiment: Cell viability analysis, bladder cancer T24; type: cell-based, human; conditions: Homo sapiens, T-24, 72 h, read-out: The results of antibiotic drug inhibiting cancer cell lines (cell viability analysis), T24
[17] = system: MDA-MB-231 (Mammary Gland, Adenocarcinoma); experiment: Cell viability analysis, breast cancer MDA-MB-231; type: cell-based, human; conditions: Homo sapiens, MDA-MB-231, 72 h, read-out: The results of antibiotic drug inhibiting cancer cell lines (cell viability analysis), MDA-MB231
BxPC-3 = experiment: Cell viability analysis, pancreatic cancer BxPC-3; type: cell-based, human; conditions: Homo sapiens, BXPC-3, 72 h, read-out: The results of antibiotic drug inhibiting cancer cell lines (cell viability analysis), BxPC-3
AsPC-1 = experiment: Cell viability analysis, pancreatic cancer AsPC-1; type: cell-based, human; conditions: Homo sapiens, ASPC1, 72 h, read-out: The results of antibiotic drug inhibiting cancer cell lines (cell viability analysis), AsPC-1
NIH: OVCAR-3 = experiment: Cell viability analysis, ovarian cancer NIH: OVCAR-3; type: cell-based, human; conditions: Homo sapiens, OVCAR-3, 72 h, read-out: The results of antibiotic drug inhibiting cancer cell lines (cell viability analysis), NIH-OVCAR-3
TOV-21G = experiment: Cell viability analysis, ovarian cancer TOV-21G; type: cell-based, human; conditions: Homo sapiens, TOV21G, 72 h, read-out: The results of antibiotic drug inhibiting cancer cell lines (cell viability analysis), TOV-21G
[18] = system: SAS (Tongue squamous cell carcinoma); experiment: Cell viability analysis, tongue cancer SAS; type: cell-based, human; conditions: Homo sapiens, 72 h, read-out: The results of antibiotic drug inhibiting cancer cell lines (cell viability analysis), SAS
U-2OS = experiment: Cell viability analysis, osteosarcoma U-2OS; type: cell-based, human; conditions: Homo sapiens, U2OS, 72 h, read-out: The results of antibiotic drug inhibiting cancer cell lines (cell viability analysis), U2OS
[19] = system: 786-O (Renal adenocarcinoma); experiment: Cell viability analysis, renal cancer 786-O; type: cell-based, human; conditions: Homo sapiens, 786-0, 72 h, read-out: The results of antibiotic drug inhibiting cancer cell lines (cell viability analysis), 786-O

CCn1cc(C(=O)O)c(=O)c2cc(F)c(N3CCNC(C)C3)c(F)c21.Cl (stereo not drawn) [Lomefloxacin HCl (Maxaquin)]
cell viability (survival rate), H1650 [1]: 56.6
cell viability (survival rate), A549 [2]: 70.7
cell viability (survival rate), AGS [3]: 77.5
cell viability (survival rate), MKN-45 [4]: 92.7
cell viability (survival rate), HepG2 [5]: 90.5
cell viability (survival rate), LoVo [6]: 88.9
cell viability (survival rate), A375 [7]: 87.7
cell viability (survival rate), HeLa [8]: 135.0
cell viability (survival rate), PC3 [9]: 63.3
cell viability (survival rate), TSGH [10]: 61.2
cell viability (survival rate), MCF7 [11]: 83.5
cell viability (survival rate), HL-60 [12]: 96.5
cell viability (survival rate), HCT116 [13]: 113.4

CO[C@H]1/C=C/O[C@@]2(C)Oc3c(C)c(O)c4c(O)c(c(/C=N/N5CCN(C6CCCC6)CC5)c(O)c4c3C2=O)NC(=O)/C(C)=C\C=C\[C@H](C)[C@H](O)[C@@H](C)[C@@H](O)[C@@H](C)[C@H](OC(C)=O)[C@@H]1C [Rifapentine (Priftin), Rifapentine]
inhibition effect on different cancer cell lines (cancer cell lines): significant inhibition effect
viability at 10 µM ([1]; Homo sapiens, NCI-H1650, 72 h, read-out: The results of antibiotic drug inhibiting cancer cell lines (cell viability analysis), H1650, H1650, repeated experiment): 69%
viability at 10 µM ([2]; read-out: The results of antibiotic drug inhibiting cancer cell lines (cell viability analysis), A549, A549, repeated experiment): 87.4%
viability at 10 µM ([2]; read-out: cell viability (survival rate), A549, drug 10 μM, 72 hours, WST-1, OD450 nm): 47.4%
viability at 10 µM ([3]; read-out: The results of antibiotic drug inhibiting cancer cell lines (cell viability analysis), AGS, repeated experiment): 76.4%
viability at 10 µM ([3]; read-out: cell viability (survival rate), AGS, drug 10 μM, 72 hours, WST-1, OD450 nm): 63.7%
viability at 10 µM ([4]; read-out: The results of antibiotic drug inhibiting cancer cell lines (cell viability analysis), MKN-45, MKN-45, repeated experiment): 98.6%
viability at 10 µM ([4]; read-out: cell viability (survival rate), MKN-45, drug 10 μM, 72 hours, WST-1, OD450 nm): 58.6%
viability at 10 µM ([5]; read-out: The results of antibiotic drug inhibiting cancer cell lines (cell viability analysis), HepG2, HepG2, repeated experiment): 112%
viability at 10 µM ([5]; read-out: cell viability (survival rate), HepG2, drug 10 μM, 72 hours, WST-1, OD450 nm): 102%
viability at 10 µM [14]: 110%
viability at 10 µM ([6]; read-out: The results of antibiotic drug inhibiting cancer cell lines (cell viability analysis), LoVo, repeated experiment): 93.5%
viability at 10 µM ([6]; read-out: cell viability (survival rate), LoVo, drug 10 μM, 72 hours, WST-1, OD450 nm): 92.3%
viability at 10 µM ([7]; read-out: The results of antibiotic drug inhibiting cancer cell lines (cell viability analysis), A375, A375, repeated experiment): 98.2%
viability at 10 µM ([7]; read-out: cell viability (survival rate), A375, drug 10 μM, 72 hours, WST-1, OD450 nm): 77.7%
viability at 10 µM [15]: 85.7%
viability at 10 µM ([8]; read-out: The results of antibiotic drug inhibiting cancer cell lines (cell viability analysis), HeLa, repeated experiment): 104%
viability at 10 µM ([8]; read-out: cell viability (survival rate), HeLa, drug 10 μM, 72 hours, WST-1, OD450 nm): 56.5%
viability at 10 µM [16]: 91.7%
viability at 10 µM ([9]; read-out: The results of antibiotic drug inhibiting cancer cell lines (cell viability analysis), PC-3, PC-3, repeated experiment): 98.4%
viability at 10 µM ([9]; read-out: cell viability (survival rate), PC3, drug 10 μM, 72 hours, WST-1, OD450 nm): 99.1%
viability at 10 µM ([10]; read-out: The results of antibiotic drug inhibiting cancer cell lines (cell viability analysis), TSGH-8301, TSGH-8301, repeated experiment): 94.7%
viability at 10 µM ([10]; read-out: cell viability (survival rate), TSGH, drug 10 μM, 72 hours, WST-1, OD450 nm): 99.2%
viability at 10 µM (T24): 86.3%
viability at 10 µM ([11]; read-out: The results of antibiotic drug inhibiting cancer cell lines (cell viability analysis), MCF-7, MCF-7, repeated experiment): 84.1%
viability at 10 µM ([11]; read-out: cell viability (survival rate), MCF7, drug 10 μM, 72 hours, WST-1, OD450 nm): 46.2%
viability at 10 µM [17]: 93.3%
viability at 10 µM (BxPC-3): 74%
viability at 10 µM (AsPC-1): 78.2%
viability at 10 µM (NIH: OVCAR-3): 104%
viability at 10 µM (TOV-21G): 79.7%
viability at 10 µM [18]: 85.4%
viability at 10 µM (U-2OS): 87.2%
viability at 10 µM [19]: 85.9%
viability at 10 µM ([12]; Homo sapiens, HL-60, 72 h, read-out: cell viability (survival rate), HL-60, drug 10 μM, 72 hours, WST-1, OD450 nm): 99.1%
